Columns and labels:
Test in all cases: relative viability (nuclei count vs DMSO), 5 days (fraction); higher = more cells survive
Bemcentinib + Pictilisib = compound: Nc1nc(Nc2ccc3c(c2)CC[C@@H](N2CCCC2)CC3)nn1-c1cc2c(nn1)-c1ccccc1CCC2 [Bemcentinib] + CS(=O)(=O)N1CCN(Cc2cc3nc(-c4cccc5[nH]ncc45)nc(N4CCOCC4)c3s2)CC1 [Pictilisib] (partner 1 µM)
Summary of the method: (§1)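 Dosing by pin tool came one day after lung cancer cell lines were seeded in 1536-well plates, using either one drug or a fixed anchor-drug dose plus five library-drug doses (not always all listed) in √10 steps. After 5 days, nuclei were counted on 4× images. Relative viability is treated-well nuclei count divided by vehicle-well nuclei count, and values are medians of duplicate plates.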

[1] = compound: CC1=CC=C(C=C1)C(=O)CN2C3=C(CCCC3)SC2=N [Pifithrin_alpha] + CS(=O)(=O)CCNCc1ccc(-c2ccc3ncnc(Nc4ccc(OCc5cccc(F)c5)c(Cl)c4)c3c2)o1 [Lapatinib] (partner 2 µM)
Summary of the method: as §1

[2] = compound: CC1=CC=C(C=C1)C(=O)CN2C3=C(CCCC3)SC2=N [Pifithrin_alpha] + NC(=O)Nc1cc(-c2cccc(F)c2)sc1C(=O)N[C@H]1CCCNC1 [AZD7762] (partner 0.2 µM)
Summary of the method: as §1

[3] = compound: CC1=CC=C(C=C1)C(=O)CN2C3=C(CCCC3)SC2=N [Pifithrin_alpha] + CCNC(=O)c1noc(-c2cc(C(C)C)c(O)cc2O)c1-c1ccc(CN2CCOCC2)cc1 [Luminespib] (partner 0.01 µM)
Summary of the method: as §1

Cell Line	relative viability (Bemcentinib + Pictilisib; first compound 0.1265 µM)	relative viability (Bemcentinib + Pictilisib; first compound 0.4 µM)	relative viability (Bemcentinib + Pictilisib; first compound 1.265 µM)	relative viability (Bemcentinib + Pictilisib; first compound 4 µM)	relative viability ([1]; first compound 1 µM)	relative viability ([1]; first compound 3.162 µM)	relative viability ([1]; first compound 10 µM)	relative viability ([1]; first compound 31.62 µM)	relative viability ([1]; first compound 100 µM)	relative viability ([2]; first compound 1 µM)	relative viability ([2]; first compound 3.162 µM)	relative viability ([2]; first compound 10 µM)	relative viability ([2]; first compound 31.62 µM)	relative viability ([2]; first compound 100 µM)	relative viability ([3]; first compound 1 µM)	relative viability ([3]; first compound 3.162 µM)	relative viability ([3]; first compound 10 µM)	relative viability ([3]; first compound 31.62 µM)	relative viability ([3]; first compound 100 µM)	relative viability (Bemcentinib + Pictilisib; first compound 0.04 µM)
A-427	0.752	0.723	0.635	0.663	0.981	0.877	0.99	0.845	1.18	0.692	0.675	0.666	0.644	0.672	1.07	0.917	1	0.678	0.828	–
LXF-289	0.854	0.814	0.79	0.844	0.912	0.979	0.85	0.749	0.837	1.16	1.12	1.23	1.12	1.13	0.676	0.589	0.789	0.469	0.697	0.871
NCI-H1355	0.389	0.452	0.444	0.458	0.765	0.756	0.699	0.616	0.702	0.857	0.633	0.511	0.463	0.514	0.642	0.496	0.516	0.401	0.409	0.405
NCI-H1437	0.479	0.418	0.409	0.448	0.946	0.809	0.898	0.507	0.377	1.21	1.21	1.11	0.735	0.942	1.27	1.2	1.08	0.728	0.947	0.457
HCC-366	0.206	0.157	0.124	0.146	0.861	1.24	1.1	–	1.06	0.23	0.183	0.183	–	0.174	–	–	–	–	–	0.124
NCI-H1299	0.793	0.878	0.874	0.75	0.976	0.985	1.02	0.73	0.947	–	–	–	–	–	–	–	–	–	–	0.818
201T	0.694	0.763	0.712	0.748	0.959	0.728	0.744	0.83	0.689	0.669	0.773	0.781	0.461	0.627	1.23	0.805	0.917	0.8	0.766	0.689
IA-LM	0.374	0.397	0.304	0.33	0.624	0.788	0.498	0.407	0.322	–	–	–	–	–	–	–	–	–	–	0.33
NCI-H1734	0.487	0.486	0.48	0.45	1.05	1.08	0.953	0.749	1.07	0.486	0.526	0.517	0.429	0.524	0.184	0.186	0.191	0.159	0.18	0.461
NCI-H1993	0.853	0.834	0.904	0.777	–	0.761	0.73	0.764	0.777	0.528	0.665	0.69	0.538	0.569	0.716	0.658	0.704	0.621	0.66	0.833
NCI-H2085	0.468	0.418	0.459	0.451	0.626	0.69	0.691	0.667	0.661	1	0.973	0.881	0.665	0.762	–	0.404	0.513	0.387	0.387	0.44
EBC-1	0.307	0.39	0.399	0.353	0.21	0.225	0.192	0.213	0.165	–	–	–	–	–	–	–	–	–	–	0.391
COR-L23	0.978	1.03	0.953	0.927	1.05	1.28	1.06	–	0.926	–	–	–	–	–	0.703	0.865	0.562	–	0.484	0.843
NCI-H1793	0.38	0.454	0.395	0.361	0.692	0.716	0.505	0.867	0.739	0.605	0.402	0.441	0.323	0.255	–	0.168	0.17	0.186	0.194	0.414
A549	0.445	0.579	0.534	0.494	1.12	1	0.838	0.766	0.739	–	–	–	–	–	–	–	–	–	–	0.524
EPLC-272H	0.356	0.343	0.294	0.316	–	0.8	1.05	0.629	0.739	–	0.233	0.212	0.196	0.215	0.279	0.264	0.564	0.226	0.16	–
NCI-H2009	0.928	0.855	0.914	0.888	0.368	0.906	0.847	0.457	0.813	–	–	–	–	–	1.07	1.04	0.926	0.701	0.967	0.753
ChaGo-K-1	0.733	0.795	0.426	0.434	–	–	–	–	–	0.905	0.947	0.872	0.683	0.866	0.563	0.528	0.477	0.38	0.581	0.579
SW 900	–	–	–	–	–	–	–	–	–	0.567	0.497	0.622	0.41	0.424	0.2	0.194	0.142	0.167	0.19	–
NCI-H2342	–	–	–	–	–	–	–	–	–	0.421	0.541	0.51	0.525	0.492	0.653	0.665	0.699	0.773	0.71	–
NCI-H460	0.267	0.412	0.26	0.374	1.2	1.21	1.1	–	0.533	0.545	0.501	0.401	–	0.375	0.0365	0.032	0.0293	0.0251	0.0317	0.252
NCI-H322M	0.522	0.418	0.525	0.564	0.578	0.621	0.557	0.635	0.613	0.413	0.462	0.48	0.498	0.487	0.865	0.868	0.841	0.647	0.766	0.512

Cell Line	relative viability (Bemcentinib + Pictilisib; first compound 0.1265 µM)	relative viability (Bemcentinib + Pictilisib; first compound 0.4 µM)	relative viability (Bemcentinib + Pictilisib; first compound 1.265 µM)	relative viability (Bemcentinib + Pictilisib; first compound 4 µM)	relative viability ([1]; first compound 1 µM)	relative viability ([1]; first compound 3.162 µM)	relative viability ([1]; first compound 10 µM)	relative viability ([1]; first compound 31.62 µM)	relative viability ([1]; first compound 100 µM)	relative viability ([2]; first compound 1 µM)	relative viability ([2]; first compound 3.162 µM)	relative viability ([2]; first compound 10 µM)	relative viability ([2]; first compound 31.62 µM)	relative viability ([2]; first compound 100 µM)	relative viability ([3]; first compound 1 µM)	relative viability ([3]; first compound 3.162 µM)	relative viability ([3]; first compound 10 µM)	relative viability ([3]; first compound 31.62 µM)	relative viability ([3]; first compound 100 µM)	relative viability (Bemcentinib + Pictilisib; first compound 0.04 µM)
HCC-827	0.943	1.05	0.877	1.07	0.197	0.207	0.235	0.197	0.198	0.159	0.177	0.189	0.189	0.154	0.747	0.741	0.803	0.439	0.863	1.11
HOP-62	0.82	–	0.712	0.92	0.886	1.21	0.991	0.714	1.23	1.24	0.803	0.769	0.659	0.809	1.07	1.05	1.04	0.776	1.19	0.661
Calu-6	1.15	1.1	0.953	1.03	1.02	1.03	0.986	0.675	1.07	–	–	–	–	–	–	–	–	–	–	0.917
NCI-H2023	0.261	0.239	0.276	0.248	0.274	0.737	0.638	0.291	0.589	–	–	–	–	–	0.544	0.637	0.364	0.277	0.34	0.205
NCI-H441	0.53	0.575	0.509	0.399	–	–	–	–	–	1.34	1.16	1.3	–	1.06	0.355	0.369	0.383	–	0.464	0.572
NCI-H1648	–	–	–	–	–	–	–	–	–	0.607	0.959	0.836	0.582	0.504	–	–	–	–	–	–
UMC-11	0.929	0.902	0.585	0.85	1.03	1.06	0.933	0.764	1.06	–	–	–	–	–	0.98	1.22	1.36	1.08	1.48	0.615
NCI-H1650	0.519	0.548	0.631	0.731	0.395	0.665	0.739	0.521	0.839	–	–	–	–	–	–	0.223	0.176	0.209	0.169	0.526
NCI-H1703	0.259	0.23	0.22	0.243	1.07	1.03	1.04	0.863	1.32	–	0.139	0.101	0.182	0.109	–	–	–	–	–	0.246
NCI-H661	0.449	0.422	0.357	0.369	0.673	0.488	0.446	0.508	0.486	–	–	–	–	–	0.912	0.915	0.949	0.881	0.921	0.318
HCC-78	0.211	0.202	0.197	0.202	0.432	0.77	0.693	–	0.619	–	0.509	0.566	0.54	0.526	–	–	–	–	–	0.144
NCI-H522	–	–	–	–	–	–	–	–	–	0.835	1.11	0.851	0.799	0.802	–	1.16	1.26	0.993	1.11	–
SK-LU-1	0.572	0.619	0.587	0.679	0.937	0.911	0.948	0.599	0.935	–	–	–	–	–	0.216	0.188	0.213	–	0.165	0.557
NCI-H2228	0.444	0.479	0.535	0.343	1.25	1.19	0.848	0.747	0.904	–	–	–	–	–	0.145	0.15	0.178	0.149	0.124	–
NCI-H1623	–	–	–	–	–	–	–	–	–	–	–	–	–	–	0.464	0.285	0.339	0.318	0.322	–
SW 1573	0.532	0.618	0.488	0.494	1.1	1.14	1.02	0.798	0.81	–	–	–	–	–	0.245	0.214	0.188	–	0.175	0.409
SK-MES-1	0.379	0.404	0.361	0.374	0.461	0.447	0.458	0.439	0.447	–	–	–	–	–	0.644	0.698	0.478	0.262	0.286	0.303
COR-L 105	0.43	0.408	0.378	0.387	0.343	0.395	0.336	0.321	0.533	–	–	–	–	–	0.675	0.763	0.547	0.62	0.685	0.292
NCI-H1563	0.629	0.635	0.655	0.626	0.623	0.863	0.931	0.769	1.01	–	–	–	–	–	0.489	0.549	0.47	0.467	0.539	0.634
LCLC-103H	0.632	0.692	0.604	0.616	–	–	–	–	–	0.792	0.846	0.791	0.721	0.85	0.947	0.994	0.894	0.789	0.996	0.588
NCI-H520	0.309	0.316	0.288	0.406	1.01	0.978	0.88	0.694	0.878	–	–	–	–	–	0.213	0.21	0.24	–	0.223	0.289

— the supplement of paper PMC10307832
